The source made the active and inactive calls. The calls are words filed in the database; no cut-off is given here.
How the values were obtained:
[1] = Neurotoxicity against non-differentiated human SH-SY5Y cells assessed as reduction in cell viability at 100 uM measured after 24 hrs by MTT assay relative to control; format: toxicity, cell-based
[2] = Neurotoxicity against retinoic acid/TPA differentiated human SH-SY5Y cells assessed as reduction in cell viability at 100 uM measured after 48 hrs by MTT assay relative to control; format: toxicity, cell-based
SH-SY5Y [3] = assay: Neuroprotective activity against 6-OHDA-induced cytotoxicity in differentiated human SH-SY5Y cells at 100 uM incubated for 48 hrs by MTT reduction assay relative to control; format: functional
SH-SY5Y [4] = assay: Neuroprotective activity against 6-OHDA-induced cytotoxicity in differentiated human SH-SY5Y cells at 100 uM incubated for 48 hrs by NR uptake assay; format: functional, cell-based
SH-SY5Y [5] = assay: Neuroprotective activity against PQ-induced cytotoxicity in differentiated human SH-SY5Y cells assessed as NR uptake at 100 uM incubated for 48 hrs by NR uptake assay (reference value: 36.78 +/- 9.57%); format: functional
SH-SY5Y [6] = assay: Neuroprotective activity in amyloid beta (25 to 35)-induced non-differentiated human SH-SY5Y cells assessed as reduction in protein aggregation at 100 uM incubated for 24 hrs by ThT fluorescence assay relative to control; format: functional; set-up: scale not given: the % may be the effect or the level left
SH-SY5Y [7] = assay: Neuroprotective activity against PQ-induced cytotoxicity in differentiated human SH-SY5Y cells assessed as viable cells at 100 uM incubated for 48 hrs by MTT reduction assay (reference value: 46.02 +/- 3.61%); format: functional; settings: read-out: Activity
SH-SY5Y [8] = assay: Neuroprotective activity against PQ-induced cytotoxicity in differentiated human SH-SY5Y cells at 100 uM incubated for 48 hrs by MTT reduction assay; format: functional; set-up: scale not given: the % may be the effect or the level left
SH-SY5Y [9] = assay: Neuroprotective activity against PQ-induced cytotoxicity in differentiated human SH-SY5Y cells at 100 uM incubated for 48 hrs by NR uptake assay; format: functional
SH-SY5Y [10] = assay: Neuroprotective activity against 6-OHDA-induced cytotoxicity in differentiated human SH-SY5Y cells assessed as NR uptake at 100 uM incubated for 48 hrs by NR uptake assay (reference value: 61.31 +/- 12.93%); format: functional

SMILES | Activity [1] [%] | Cell viability (% of control) [2] [%] | Activity (SH-SY5Y [3]) | Activity (SH-SY5Y [4]) | Activity (SH-SY5Y [6]) | other results
COC(=O)[C@H](CCC(=O)NC12CC3CC(CC(C3)C1)C2)NC(=O)[C@@H]1[C@H]2CC[C@H](C2)N1C(=O)CN.O=C(O)C(F)(F)F | 89.15 | 96.82 | inactive | inactive |  | Activity (SH-SY5Y [5]): 40.94%
COC(=O)CC[C@H](NC(=O)[C@@H]1[C@H]2CC[C@H](C2)N1C(=O)CN(C)C)C(=O)NC12CC3CC(CC(C3)C1)C2 | 97.93 |  |  |  | 24% | 
COC(=O)[C@H](CCC(=O)NC12CC3CC(CC(C3)C1)C2)NC(=O)[C@@H]1CCCN1C(=O)CN |  |  |  |  | inactive | 
COC(=O)CC[C@H](NC(=O)[C@@H]1[C@H]2CC[C@H](C2)N1C(=O)CNC(=O)OC(C)(C)C)C(=O)NC12CC3CC(C)(CC(C)(C3)C1)C2 |  | 98.1 | inactive | inactive |  | viability at 100 µM (SH-SY5Y [7]): 38.8%
COC(=O)CC[C@H](NC(=O)[C@@H]1[C@H]2CC[C@H](C2)N1C(=O)CN)C(=O)NC12CC3CC(CC(C3)C1)C2.O=C(O)C(F)(F)F | 93.91 | 102.46 | inactive | inactive | 20% | Activity (SH-SY5Y [8]): 5%
N[C@@H]1CCc2ccccc21 |  |  |  |  |  | viability at 100 µM (SH-SY5Y [7]): 23.6%; Activity (SH-SY5Y [5]): 22.95%
COC(=O)CC[C@H](NC(=O)[C@@H]1[C@H]2CC[C@H](C2)N1C(=O)CN)C(=O)N[C@@H]1CCc2ccccc21.O=C(O)C(F)(F)F | 96.04 | 98.48 | inactive | inactive | inactive | Activity (SH-SY5Y [8]): 4%; Activity (SH-SY5Y [5]): 40.76%
COC(=O)[C@H](CCC(=O)NC12CC3CC(C)(CC(C)(C3)C1)C2)NC(=O)[C@@H]1[C@H]2CC[C@H](C2)N1C(=O)CN(C)C | 32.77 | 9.07 |  |  |  | 
NC12CC3CC(CC(C3)C1)C2 [AMANTADINE] |  |  |  |  | 17% | 
COC(=O)[C@H](CCC(=O)N[C@@H]1CCc2ccccc21)NC(=O)[C@@H]1[C@H]2CC[C@H](C2)N1C(=O)CN(C)C | 90.95 | 96.47 | inactive | inactive | inactive | Activity (SH-SY5Y [8]): 12%; Activity (SH-SY5Y [9]): <=15%
COC(=O)CC[C@H](NC(=O)[C@@H]1[C@H]2CC[C@H](C2)N1C(=O)CNC(=O)OC(C)(C)C)C(=O)N[C@@H]1CCc2ccccc21 | 86.49 |  |  |  | inactive | 
COC(=O)[C@H](CCC(=O)N[C@@H]1CCc2ccccc21)NC(=O)[C@@H]1[C@H]2CC[C@H](C2)N1C(=O)CNC(=O)OC(C)(C)C | 32.77 | 94.07 | inactive | inactive |  | 
COC(=O)CC[C@H](NC(=O)[C@@H]1[C@H]2CC[C@H](C2)N1C(=O)CNC(=O)OC(C)(C)C)C(=O)NC12CC3CC(CC(C3)C1)C2 | 90.79 |  |  |  |  | 
COC(=O)CC[C@H](NC(=O)[C@@H]1[C@H]2CC[C@H](C2)N1C(=O)CN(C)C)C(=O)N[C@@H]1CCc2ccccc21 |  | 100.56 | inactive | inactive |  | 
COC(=O)[C@H](CCC(=O)NC12CC3CC(C)(CC(C)(C3)C1)C2)NC(=O)[C@@H]1[C@H]2CC[C@H](C2)N1C(=O)CN.O=C(O)C(F)(F)F | 32.77 |  |  |  |  | 
COC(=O)[C@H](CCC(=O)NC12CC3CC(CC(C3)C1)C2)NC(=O)[C@@H]1[C@H]2CC[C@H](C2)N1C(=O)CNC(=O)OC(C)(C)C | 89.94 |  |  |  |  | 
NCC(=O)N1CCC[C@H]1C(=O)N[C@@H](CCC(=O)O)C(=O)O |  |  | 12% |  | 12% | Activity (SH-SY5Y [10]): 25.32%; viability at 100 µM (SH-SY5Y [7]): 25.3%; Activity (SH-SY5Y [5]): 36.33%
COC(=O)CC[C@H](NC(=O)[C@@H]1CCCN1C(=O)CN)C(=O)N[C@@H]1CCc2ccccc21 |  |  |  |  | Active | 
COC(=O)[C@H](CCC(=O)N[C@@H]1CCc2ccccc21)NC(=O)[C@@H]1CCCN1C(=O)CN |  |  |  |  | Active | 
